The source made the active and inactive calls. The calls are words filed in the database; no cut-off is given here.
Target: T1, Histone deacetylase 8 (Homo sapiens) (UniProt Q9BY41)
T1 sequence (whole entry): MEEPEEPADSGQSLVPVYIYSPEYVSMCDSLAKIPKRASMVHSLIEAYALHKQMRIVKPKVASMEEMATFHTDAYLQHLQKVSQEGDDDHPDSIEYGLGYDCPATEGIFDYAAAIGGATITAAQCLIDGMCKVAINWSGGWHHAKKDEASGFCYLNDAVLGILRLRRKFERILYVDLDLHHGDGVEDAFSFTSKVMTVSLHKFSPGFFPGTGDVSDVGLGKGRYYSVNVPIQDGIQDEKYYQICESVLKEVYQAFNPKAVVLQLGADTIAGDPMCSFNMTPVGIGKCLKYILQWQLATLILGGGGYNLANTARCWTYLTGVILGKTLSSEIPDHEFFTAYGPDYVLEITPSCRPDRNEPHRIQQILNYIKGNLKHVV
Experiment: Inhibition of HDAC8 (unknown origin) upto 100 uM using Boc-Lys(TFA)-AMC as substrate preincubated for 1 hr followed by substrate addition and measured after 15 mins by fluorescence based method
Conditions: time 75.0 min

Row | SMILES | inhibition
1 | C#Cc1cnccc1NC(=O)CCC(=O)N1Cc2ccccc2C1 | inactive
2 | C#Cc1cnccc1NC(=O)CC(=O)N1Cc2ccccc2C1 | inactive

Results, then the molecule that gave them:

Row | inhibition | SMILES
3 | inactive | C#Cc1c[n+](C)ccc1NC(=O)CCC(=O)N1Cc2ccccc2C1
4 | inactive | C#Cc1cnccc1NC(=O)N1Cc2ccccc2C1

Target: T1, Histone deacetylase 8 (Homo sapiens)
Experiment: Inhibition of HDAC8 in human OCI-AML3 cells assessed as increase in SMC3 acetylation at 10 uM incubated for 72 hrs by Western blotting analysis
Type: cell-based
Conditions: OCI-AML-3

Row | SMILES | inhibition
5 | C#Cc1c[n+](C)ccc1NC(=O)CC(=O)N1Cc2ccccc2C1 | Active

Target: T1, Histone deacetylase 8 (Homo sapiens)
Experiment: Inhibition of HDAC8 in human OCI-AML3 cells assessed as increase in SMC3 acetylation at 20 to 40 uM incubated for 72 hrs by Western blotting analysis
Type: cell-based
Conditions: OCI-AML-3, dose 20-40 µM

Row | SMILES | inhibition
6 | C#Cc1ccc[n+](C)c1 | Active

Target: T1, Histone deacetylase 8 (Homo sapiens)
Experiment: Inhibition of HDAC8 (unknown origin) at 0.0001 to 10000 uM using Boc-Lys(TFA)-AMC as substrate preincubated for 1 hr followed by substrate addition and measured after 15 mins by fluorescence based method
Conditions: dose 0.0001-10000 µM, time 75.0 min

Row | SMILES | inhibition
7 | C#Cc1c[n+](C)ccc1NC(=O)N1Cc2ccccc2C1 | inactive
8 | C#Cc1c[n+](C)ccc1NC(=O)CCC(=O)N1Cc2ccccc2C1 | inactive

Target: T2, Histone deacetylase 8 (Homo sapiens, UniProt Q9BY41)
T2 sequence (Q9BY41 whole entry): T1 sequence (whole entry)
Experiment: Inhibition of HDAC8 (unknown origin) using Boc-Lys(TFA)-AMC as substrate preincubated for 1 hr followed by substrate addition and measured after 15 mins by fluorescence based method
Conditions: not given

Row | SMILES | IC50
9 | C[n+]1cccc(Br)c1 | 8 µM
10 | N#Cc1cnccn1 | > 50 µM
11 | N#Cc1ccncn1 | > 50 µM
12 | Clc1ncccn1 | > 50 µM
13 | C=Cc1cnccn1 | > 50 µM
14 | C[n+]1ccnc(Cl)c1 | 2.3 µM
15 | Brc1cccnc1 | > 50 µM
16 | C[n+]1ccnc(C#N)c1 | > 50 µM
17 | Ic1ccn[nH]1 | > 50 µM
18 | C[n+]1ccnc(I)c1 | 27 µM
19 | C#Cc1cn(C)[n+](C)c1 | 10 µM
20 | C[n+]1cnccc1C#N | 3.6 µM
21 | N#Cc1ccccn1 | > 50 µM
22 | Cn1cc[n+](C)c1Br | 0.33 µM
23 | Cn1cc(Cl)c[n+]1C | 14 µM
24 | C=Cc1c[n+](C)ccn1 | 0.42 µM
25 | C[n+]1ccc(Br)cc1 | 3.1 µM
26 | Cn1c(Br)cc[n+]1C | 23 µM
27 | C=Cc1cncnc1 | > 50 µM
28 | Cn1cc[n+](C)c1I | 1.8 µM
29 | C[n+]1ccsc1C#N | > 50 µM
30 | C#Cc1cn[nH]c1 | > 50 µM
31 | Clc1cncnc1 | > 50 µM
32 | C[n+]1ccc(I)cc1 | 0.44 µM

Row | SMILES | IC50
33 | Clc1cn[nH]c1 | > 50 µM
34 | N#Cc1ccncc1 [ISONICOTINONITRILE] | > 50 µM
35 | Cn1cc(C#N)c[n+]1C | > 50 µM
36 | C[n+]1cccc(Cl)c1 | 14 µM
37 | C[n+]1cncc(Cl)c1 | 4.3 µM
38 | C[n+]1ccccc1Cl | > 50 µM
39 | Brc1ncccn1 | > 50 µM
40 | Cn1cc[n+](C)c1C#N | 22 µM
41 | C[n+]1ccccc1I | 0.44 µM
42 | Brc1ccncc1 | > 50 µM
43 | C#Cc1ccc[n+](C)c1 | 8.2 µM
44 | Clc1cccnc1 | > 50 µM
45 | N#Cc1cccnc1 | > 50 µM
46 | Clc1ccccn1 [2-CHLOROPYRIDINE] | > 50 µM
47 | C#Cc1cncnc1 | > 50 µM
48 | C#Cc1c[n+](C)ccn1 | 0.42 µM
49 | C=Cc1ccc[n+](C)c1 | 5 µM
50 | Cn1cc[n+](C)c1Cl | 0.97 µM
51 | N#Cc1nccs1 | > 50 µM
52 | C=Cc1cccnc1 | > 50 µM
53 | Brc1ccccn1 | > 50 µM
54 | C=Cc1cnc[n+](C)c1 | 5 µM
55 | C#Cc1ccccn1 | > 50 µM

The remaining lines, values ahead:

Row | IC50 | SMILES
56 | 20 µM | Cn1cc(Br)[n+](C)c1
57 | 2.1 µM | C#Cc1cccc[n+]1C
58 | 6.5 µM | C[n+]1ccc(Cl)cc1
59 | > 50 µM | Ic1cn[nH]c1
60 | > 50 µM | C#Cc1cc[n+](C)n1C
61 | > 50 µM | Brc1cn[nH]c1
62 | > 50 µM | N#Cc1cn[nH]c1
63 | > 50 µM | C=Cc1ccncc1
64 | 9 µM | Cn1cc(I)c[n+]1C
65 | 31 µM | Cn1cc(I)[n+](C)c1
66 | > 50 µM | Ic1c[nH]cn1
67 | > 50 µM | C#Cc1ccn[nH]1
68 | 14 µM | C[n+]1ccc(C#N)cc1
69 | > 50 µM | Ic1ncc[nH]1
70 | > 50 µM | C=Cc1cc[n+](C)n1C
71 | 0.3 µM | C[n+]1cncc(Br)c1
72 | 12.6 µM | C#Cc1ccncc1
73 | > 50 µM | N#Cc1ncc[nH]1
74 | 2.9 µM | Cc1o[n+](C)c(C)c1I
75 | 12 µM | C[n+]1cccc(C#N)c1
76 | 1.2 µM | C[n+]1ccoc1I
77 | > 50 µM | C[n+]1cncc(C#N)c1

Row | IC50 | SMILES
78 | > 50 µM | Clc1cnccn1
79 | 1.3 µM | C[n+]1ccccc1Br
80 | > 50 µM | Brc1ccn[nH]1
81 | > 50 µM | N#Cc1c[nH]cn1
82 | > 50 µM | Clc1ncc[nH]1
83 | 4.7 µM | C[n+]1cccc(I)c1
84 | 5.6 µM | Brc1cncs1
85 | 0.13 µM | C[n+]1csc(Br)c1
86 | 2.24 µM | Ic1ncccn1
87 | > 50 µM | N#Cc1cncnc1
88 | > 50 µM | Brc1ncc[nH]1
89 | 16 µM | Cn1cc(Cl)[n+](C)c1
90 | 5.3 µM | C[n+]1ccccc1C#N
91 | > 50 µM | Clc1ccncc1
92 | 24 µM | Cn1cc(C#N)[n+](C)c1
93 | > 50 µM | C#Cc1cccnc1
94 | 0.43 µM | C[n+]1cccnc1Cl
95 | > 50 µM | C=Cc1ccn[nH]1
96 | 3.4 µM | C=Cc1cc[n+](C)cc1
97 | > 50 µM | C=Cc1ccccn1
98 | > 50 µM | Ic1cnccn1
99 | 19 µM | Cn1c(I)cc[n+]1C

Row | IC50 | SMILES
100 | 0.079 µM | C#Cc1cc[n+](C)cc1
101 | 1.2 µM | C[n+]1ccsc1Br
102 | 21 µM | C#Cc1cnc[n+](C)c1
103 | > 50 µM | Ic1cncnc1
104 | > 50 µM | Brc1cncnc1
105 | 0.22 µM | C[n+]1cccnc1Br
106 | > 50 µM | Cc1noc(C)c1I
107 | 0.152 µM | C[n+]1cccnc1I
108 | 0.74 µM | C#Cc1nccc[n+]1C
109 | 0.12 µM | C[n+]1cncc(I)c1
110 | 27 µM | Cn1cc(Br)c[n+]1C
111 | > 50 µM | C[n+]1cnccc1Cl
112 | > 50 µM | Brc1nccs1
113 | > 50 µM | Brc1cnccn1
114 | 27 µM | C[n+]1ccnc(Br)c1
115 | > 50 µM | C#Cc1cnccn1
116 | > 50 µM | Clc1ccncn1
117 | > 50 µM | C#Cc1ncccn1
118 | > 50 µM | Clc1c[nH]cn1
119 | > 50 µM | Ic1ncco1
120 | 4.61 µM | Ic1ccncc1
121 | > 50 µM | Brc1c[nH]cn1

Target: T1, Histone deacetylase 8 (Homo sapiens)
Experiment: Inhibition of HDAC8 (unknown origin) assessed as Kinact using Boc-Lys(TFA)-AMC as substrate by fluorescence based method
Conditions: not given

Row | SMILES | K
122 | C#Cc1c[n+](C)ccc1NC(=O)CC(=O)N1Cc2ccccc2C1 | 0.005 s⁻¹
123 | C#Cc1ccc[n+](C)c1 | 0.003 s⁻¹

From ChEMBL document CHEMBL5344431 (J Med Chem, 2024)
